The results in this text go back to US20200038306A1, “[…] DERIVATIVES AS SELF-TANNING SUBSTANCES” (Merck Patent GmbH, priority 2016, published 2020).

Test [1] deals with Normal Human Epidermal Keratinocytes (NHEK) and Normal Human Epidermal Melanocytes, Lightly Pigmented (NHEM-LP) co-culture. Put plainly: Synthesis of melanin in NHEK/NHEM-LP co-culture. The note with it: 240 hours (10 days) incubation, melanin extracted with 0.5 N NaOH, OD 405 nm, triple determination. Format: cell-based. As for the experimental part:
Evaluation of the Synthesis of Melanin in a Cell Culture Model Containing Two Cell Types (Co-Culture), Firstly Normal Human Epidermal Keratinocytes (NHEK) and Secondly Normal Human Epidermal Melanocytes, Lightly Pigmented (NHEM-LP)
The two cell types NHEK and NHEM-LP (NHEK:NHEM-LP) are employed in a ratio of 2:1.
The culture medium consists of the media keratinocyte-SFM (2 parts by volume) and medium M254 (1 part by volume).
Keratinocyte-SFM contains 0.25 ng/ml of epidermal growth factor (EGF), 25 μg/ml of pituitary extract (PE) and 25 μg/ml of gentamycin and was purchased from Thermo Fisher Scientific.
M254 contains PMA-free HMGS-2, 5 μg/ml of insulin, 50 U/ml of penicillin, 50 μg/ml of streptomycin and 25 μg/ml of gentamycin and was purchased from Thermo Fisher Scientific.
IBMX denotes the compound 3-isobutyl-1-methylxanthine.
Cell Culture and Treatment
NHEK and NHEM-LP were incubated in the culture medium in microtitre plates (24-well plates) for 24 hours (37° C., 5% CO2). The culture medium was removed and replaced by an assay medium which contained the culture medium and compounds Ib and Id to be tested or alternatively no test substance, the reference L-tyrosine (1 mM), 200 μM of IBMX or the solvent control 0.1% of THF, 0.15% of THF, 0.1% of DMSO, 0.15% of DMSO, 0.17% of DMSO. Compound Ib was added as solution (0.15% in DMSO). Compound Id was added as solution (0.15% in THF). After replacement of the assay medium, the cells were incubated again for 240 hours (10 days). On days 3 and 7, assay medium was again added. All experimental investigations were carried out using a triple determination. After the end of the incubation, the melanin was extracted by cell lysis with 0.5 N NaOH. The optical density (OD) of each sample was measured at 405 nm. The melanin quantity was calculated from melanin standards (standard curve 0.39 to 100 μg/ml of melanin).

Test [2] has as its system 3D melanized reconstructed human epidermis (RHEs-MEL). Put plainly: Tanning properties in vitro on reconstructed epidermis. The note with it: systemic treatment in culture medium for 10 days, positive control IBMX 100 μM. The format is cell-based. As for the experimental part:
Evaluation of the Tanning Properties In Vitro on Reconstructed Epidermis
In this study, the tanning properties of compound Id are investigated in vitro on 3D melanized reconstructed human epidermis (RHEs-MEL). The compound IBMX (3-isobutyl-1-methylxanthine) 100 μM is employed as positive control. Compound Id is employed 20 μM and […]. Untreated reconstructed skin is used as negative control. The in vitro skin is treated systemically with the compounds to be investigated in a culture medium for 10 days and then analysed.

Regarding `COc1ccc(CC2C(=O)NC(=O)NC2=O)cc1` [Compound Ib, 5-(4-methoxybenzyl)pyrimidine-2,4,6-trione], the “stimulation of melanin synthesis” value in test [1] (45 μM) amounted to 20%.

As for `CCCCN1C(=O)NC(=O)C(Cc2ccccc2)C1=O` (centres unmarked) [Compound Id, 5-benzyl-1-butylpyrimidine-2,4,6-trione], the entries for the “stimulation of melanin synthesis” value in test [1] (20 μM) and in test [1] (45 μM) were 17% and 25%, respectively. In addition, the “tanning properties (reduction of the ITA value and visual colour difference) compared with IBMX” value in test [2] (20 μM) and in test [2] was “comparably good properties as IBMX at 100 μM” throughout.
